The values that follow come from patent US7816350B2, “Substituted [1,2,3] triazolo[4,5-D]pyrimidines as cdk inhibitors” (Institute of Experimental Botany ASCR, priority 2002, dated 2010).

One series relates to β-adrenergic receptors. Nature of the series: Modulation of the activity of β-adrenergic receptors, isoproterenol-induced cAMP synthesis in C6 glioma. It is filed as cell-based. The settings on record: cAMP synthesis induced by 5 μM (−) isoproterenol, rat C6 glioma; for Effect: result in words; for IC50: read-out: I50. Here is the method:
Rat C6 glioma (ATCC N^o CCL107) was cultivated in monolayer in serum-free chemically defined medium containing Ham's F10/minimal essential medium (1:1 vol/vol), 2 mM L-glutamine, 1% (vol/vol) minimal essential medium vitamins (100×), 1% (vol/vol) minimal essential medium nonessential amino acids (100×), 100 U/ml penicillin, 100 μg/ml streptomycin and 30 nM sodium selenite. Incubation was at 37° C. in a humidified atmosphere. Assays were performed in the logarithmic growth phase at a density of 2.5×10^5 cells/cm^2. Intracellular cAMP synthesis was induced by addition of 5 μM (−) isoproterenol. After 30 min incubation at 37° C. the medium was removed and the cellular amount of cAMP determined using the cAMP-enzyme immunoassay kit of Amersham. The I50 is determined from a dose-response curve in duplicate (Table 7). The effect of seven 8-azapurine-analogs was measured after simultaneous addition with isoproterenol.
As P2Y1-like and A2 purinergic receptors, negatively and positively coupled to adenylate cyclase respectively, are present on rat C6 glioma it has to be determined if the modulation of the synthesis of cAMP is due to inhibition of the activation of β-adrenergic receptors by isoproterenol are due to activation of purinergic receptors.

Another series addresses IκB-α kinase. The experiment in a line: IκB-α kinase inhibitory activity, in vitro kinase assay. Format: biochemical.
For another series, the target named is T1, p34^cdc2/cyclin B (CDC2) (Homo sapiens, UniProt P06493).
T1 construct: made in house; host or cells: Sf9 insect cells (baculovirus co-infection)
T1 sequence (P06493 whole entry, species assumed): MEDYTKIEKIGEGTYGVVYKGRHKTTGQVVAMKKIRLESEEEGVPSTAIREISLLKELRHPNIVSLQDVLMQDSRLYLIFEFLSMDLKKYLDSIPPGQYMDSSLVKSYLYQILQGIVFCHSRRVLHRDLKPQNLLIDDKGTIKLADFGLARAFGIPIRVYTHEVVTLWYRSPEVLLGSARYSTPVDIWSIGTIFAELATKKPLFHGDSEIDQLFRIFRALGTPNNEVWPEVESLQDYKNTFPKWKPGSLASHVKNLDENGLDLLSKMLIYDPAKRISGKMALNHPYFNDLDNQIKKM
T1 sequence (P14635 whole entry partner, species assumed): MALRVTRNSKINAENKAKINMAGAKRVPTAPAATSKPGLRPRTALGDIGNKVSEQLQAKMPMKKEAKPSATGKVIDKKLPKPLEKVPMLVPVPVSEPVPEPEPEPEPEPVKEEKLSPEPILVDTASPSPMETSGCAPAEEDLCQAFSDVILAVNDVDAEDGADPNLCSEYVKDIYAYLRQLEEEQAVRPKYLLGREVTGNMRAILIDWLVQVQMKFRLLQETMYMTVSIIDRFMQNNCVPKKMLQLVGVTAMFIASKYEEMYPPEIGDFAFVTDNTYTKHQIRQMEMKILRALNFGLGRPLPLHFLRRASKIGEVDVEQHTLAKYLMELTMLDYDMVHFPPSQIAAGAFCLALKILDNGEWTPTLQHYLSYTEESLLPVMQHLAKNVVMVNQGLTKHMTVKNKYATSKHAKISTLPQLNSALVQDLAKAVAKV
Nature of the series: CDK inhibition assay, p34cdc2/cyclin B kinase, histone H1 phosphorylation. Format: biochemical. Put shortly:
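Sf9-expressed human p34cdc2/cyclin B and p33cdk2/cyclin E lysates phosphorylate 1 mg/ml histone H1 with 15 μM [γ-32P]ATP, 10 min at 30 °C, pH 7.4 Hepes/MgCl2 buffer, DMSO ≤1%. SDS-PAGE and image analysis read phosphorylation; apparent inhibition constants come by graphic analysis of % maximal activity.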

For a further series, the system named is MCF7. The experiment in a line: In vitro cytotoxic activity, MTT assay, MCF7. Format: cell-based. The settings on record: Homo sapiens, 72 hours. The source says: One of the parameters used, as the basis for colorimetric assays is the metabolic activity of viable cells. For example, a microtiter assay, which uses the tetrazolium salt MTT, is now widely used to quantitate cell proliferation and cytotoxicity. For instance, this assay is used in drug screening programs and in chemosensitivity testing. Because only metabolically active cells cleave tetrazolium salts, these assays detect viable cells exclusively. In the case of MTT assay, yellow soluble tetrazolium salt is reduced to coloured water-insoluble formazan salt. After it is solubilized, the formazan formed can easily and rapidly be quantified in a conventional ELISA plate reader at 570 nm (maximum absorbance). The quantity of reduced formazan corresponds to number of vital cells in the culture.
Human T-lymphoblastic leukemia cell line CEM; promyelocytic HL-60 and monocytic U937 leukemias; breast carcinoma cell lines MCF-7, BT549, MDA-MB-231; glioblastoma U87MG cells; cervical carcinoma cells HELA; sarcoma cells U2OS and Saos2; hepatocellular carcinoma HepG2; mouse immortalized bone marrow macrophages B2.4 and B10A.4; P388D1 and L1210 leukemia; B16 and B16F10 melanomas were used for routine screening of compounds. The cells were maintained in Nunc/Corning 80 cm^2 plastic tissue culture flasks and cultured in cell culture medium (DMEM with 5 g/l glucose, 2 mM glutamine, 100 U/ml penicillin, 100 μg/ml streptomycin, 10% fetal calf serum and sodium bicarbonate).
The cell suspensions that were prepared and diluted according to the particular cell type and the expected target cell density (2.500-30.000 cells per well based on cell growth characteristics) were added by pipette (80 μl) into 96/well microtiter plates. Inoculates were allowed a pre-incubation period of 24 hours at 37° C. and 5% CO2 for stabilisation. Four-fold dilutions of the intended test concentration were added at time zero in 20 μl aliquots to the microtiter plate wells. Usually, test compound was evaluated at six 4-fold dilutions. In routine testing, the highest well concentration was 266.7 μM, but it can be the matter of change dependent on the agent. All drug concentrations were examined in duplicates. Incubations of cells with the test compounds lasted for 72 hours at 37° C., in 5% CO2 atmosphere and 100% humidity. At the end of incubation period, the cells were assayed by using the MTT. Ten microliters of the MTT stock solution were pipetted into each well and incubated further for 1-4 hours. After this incubation period, formazan was solubilized by addition of 100 μl/well of 10% SDS in water (pH=5.5) followed by further incubation at 37° C. overnight. The optical density (OD) was measured at 540 nm with the Labsystem iEMS Reader MF (UK). The tumour cell survival (TCS) was calculated using the following equation: TCS=(ODdrug exposed well/mean ODcontrol wells)×100%. The IC50 value, the drug concentration lethal to 50% of the tumour cells, was calculated from the obtained dose response curves (FIG. 2).
On the technique in general: Tetrazolium dyes change colour on reduction, which living cells bring about.

A further series concerns K-562. The experiment in a line: In vitro cytotoxic activity, MTT assay, K-562. The settings on record: Homo sapiens, K562, 72 hours. It is filed as cell-based.

SMILES strings stand for the structures.

Consider `CC(C)n1nnc2c(NCc3ccccc3)nc(NCCN)nc21`, for which, in the series with β-adrenergic receptors, the “Effect, fold activation” value is recorded as 1.1-fold activation. Moreover, the IC50 at IκB-α kinase and against p34^cdc2/cyclin B (CDC2) was > 100 µM throughout.
As to `CC(C)n1nnc2c(NCc3ccccc3)nc(NCCCN)nc21`, in the series on β-adrenergic receptors, the Effect result is “inhibition”. Also, the IC50 in the series on β-adrenergic receptors was 31 ± 2 µM; against IκB-α kinase, > 100 µM; at p34^cdc2/cyclin B (CDC2), > 100 µM.
For the molecule `CC(C)C(CO)Nc1nc(NCc2ccccc2)c2nnn(C(C)C)c2n1` (centres unmarked), in the series on β-adrenergic receptors, the Effect entry was “inhibition” and the IC50 worked out at 32 ± 2 µM.
With `CC[C@H](CO)Nc1nc(NCc2ccc(O)cc2)c2[nH]nc(C(C)C)c2n1`, the “Effect, fold activation” value in the series on β-adrenergic receptors is 1.2-fold activation.
`CCCCCCNc1nc(NC(CO)c2ccccc2)c2nnn(C(C)C)c2n1` (racemic): in the series on β-adrenergic receptors, the Effect entry is reported as “inhibition” and the IC50 is 12 ± 1 µM.
As for `CC(C)n1nnc2c(Nc3cccc(Cl)c3)nc(NC3CCC(N)CC3)nc21` (centres unmarked) [2-(4-aminocyclohexyl)amino-6-(3-chlorophenyl)amino-9-isopropyl-8-azapurine], the melting point was in the range of 221 to 223 °C. For the same molecule, in the series on MCF7, the IC50 is 6.1 µM. The IC50 in the series with K-562 amounted to 7.4 µM. Moreover, the IC50 against IκB-α kinase was 60 µM. This molecule showed an IC50 against p34^cdc2/cyclin B (CDC2) of 6.3 µM.
Consider `CC[C@H](CO)Nc1nc(NCc2cccc(O)c2)c2nnn(C(C)C)c2n1` [2-R-(1-hydroxymethyl)propylamino-6-(3-hydroxybenzyl)amino-9-isopropyl-8-azapurine], for which, in the series on β-adrenergic receptors, the “Effect, fold activation” value is on record as 1.3-fold activation. The IC50 on IκB-α kinase is 85 µM; at p34^cdc2/cyclin B (CDC2), 10 µM.
As to `CC(C)C(CO)Nc1nc(NCc2cccc(O)c2)c2nnn(C(C)C)c2n1` (centres unmarked) [Example 9, 2-(1-Hydroxymethyl-2-methylpropylamino)-6-(3-hydroxybenzylamino)-9-isopropyl-8-azapurine], the melting point lay in the range of 150 to 152 °C.
The molecule `CC(C)C(CO)Nc1nc(Nc2cccc(Cl)c2)c2nnn(C(C)C)c2n1` (centres unmarked) [Example 10, 2-(1-Hydroxymethyl-2-methylpropylamino)-6-(3-chloroanilino)-9-isopropyl-8-azapurine] registered a melting point of 160 to 163 °C.
With `CC(C)n1nnc2c(NCc3ccccc3O)nc(N[C@H]3CC[C@H](N)CC3)nc21` [Example 12, 2-(trans-4-Aminocyclohexylamino)-6-(2-hydroxybenzylamino)-9-isopropyl-8-azapurine], the melting point was in the range of 120 to 123 °C.
In turn, `Cc1nc(NCc2ccccc2)c2nnn(C(C)C)c2n1` [Example 15, 2-methyl-6-benzylamino-9-isopropyl-8-azapurine] displayed a melting point of 133 to 139 °C.
The same measure, in the same setting: then `Clc1nc(NCc2ccccc2)c2[nH]nnc2n1` [Example 18, 2-Chloro-6-benzylamino-8-azapurine], with 122 to 124 °C.
`NCCCNc1nc(NCc2ccccc2)c2[nH]nnc2n1` [Example 20, 2-(3-Aminopropylamino)-6-benzylamino-8-azapurine] gave a melting point of 119 to 124 °C.

The melting point is the temperature, or range, at which the solid turns liquid.
